Experimental data taken from patent EP2835136A1, “Somatostatin Receptor Modulator for the treatment of infertility” (PregLem S.A., priority 2013, dated 2015).
Bridge positions count the residues as written; N and C are the ends. Square brackets hold non-standard residues; d marks the D form. Peptide text beside a SMILES is read from it. Phe(4-Cl) = N[C@@H](Cc1ccc(Cl)cc1)C(=O)O; 2Nal = N[C@@H](Cc1ccc2ccccc2c1)C(=O)O; 4Pal = N[C@@H](Cc1ccncc1)C(=O)O; NMeK = CN[C@@H](CCCCN)C(=O)O

Experiments:
hsst3 = hsst3 (Homo sapiens, UniProt P32745); test: in vitro binding assay, hsst3
Chain of hsst3 (P32745 whole entry): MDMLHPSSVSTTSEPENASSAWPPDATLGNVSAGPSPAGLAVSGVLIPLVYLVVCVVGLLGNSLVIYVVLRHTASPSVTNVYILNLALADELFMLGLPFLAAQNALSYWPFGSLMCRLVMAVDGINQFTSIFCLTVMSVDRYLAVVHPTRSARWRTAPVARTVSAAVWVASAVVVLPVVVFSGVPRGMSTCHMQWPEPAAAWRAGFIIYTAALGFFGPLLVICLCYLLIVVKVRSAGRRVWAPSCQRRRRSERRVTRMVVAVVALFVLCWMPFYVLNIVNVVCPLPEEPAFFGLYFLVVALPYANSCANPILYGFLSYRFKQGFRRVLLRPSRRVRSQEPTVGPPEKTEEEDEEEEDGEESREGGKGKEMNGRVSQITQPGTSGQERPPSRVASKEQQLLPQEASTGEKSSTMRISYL

hsst4 = hsst4 (Homo sapiens, UniProt P31391); test: in vitro binding assay, hsst4
Chain of hsst4 (P31391 whole entry): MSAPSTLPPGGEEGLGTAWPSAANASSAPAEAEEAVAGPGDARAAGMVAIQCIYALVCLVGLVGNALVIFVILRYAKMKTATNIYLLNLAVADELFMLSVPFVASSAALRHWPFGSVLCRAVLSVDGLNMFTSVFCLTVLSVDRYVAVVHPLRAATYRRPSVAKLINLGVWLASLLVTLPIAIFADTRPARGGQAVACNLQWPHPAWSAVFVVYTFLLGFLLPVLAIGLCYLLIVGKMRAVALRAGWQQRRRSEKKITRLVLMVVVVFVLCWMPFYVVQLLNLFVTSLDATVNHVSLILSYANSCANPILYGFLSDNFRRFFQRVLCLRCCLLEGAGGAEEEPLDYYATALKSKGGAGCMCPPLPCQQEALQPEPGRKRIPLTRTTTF

hsst5 = hsst5 (Homo sapiens, UniProt P35346); test: in vitro binding assay, hsst5
Chain of hsst5 (P35346 whole entry): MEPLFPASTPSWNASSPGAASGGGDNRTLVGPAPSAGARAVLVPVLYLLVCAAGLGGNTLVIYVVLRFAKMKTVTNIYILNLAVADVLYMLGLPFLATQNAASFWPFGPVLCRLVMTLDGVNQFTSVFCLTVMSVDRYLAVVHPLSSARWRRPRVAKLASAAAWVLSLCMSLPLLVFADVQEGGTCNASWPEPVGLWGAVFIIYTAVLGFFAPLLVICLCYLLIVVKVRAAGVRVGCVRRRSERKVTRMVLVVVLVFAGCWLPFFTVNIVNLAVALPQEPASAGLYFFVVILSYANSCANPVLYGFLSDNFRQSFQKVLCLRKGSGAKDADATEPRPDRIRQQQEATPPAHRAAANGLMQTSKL

hsst2 = hsst2 (Homo sapiens, UniProt P30874); test: in vitro binding assay, hsst2
Chain of hsst2 (P30874 whole entry): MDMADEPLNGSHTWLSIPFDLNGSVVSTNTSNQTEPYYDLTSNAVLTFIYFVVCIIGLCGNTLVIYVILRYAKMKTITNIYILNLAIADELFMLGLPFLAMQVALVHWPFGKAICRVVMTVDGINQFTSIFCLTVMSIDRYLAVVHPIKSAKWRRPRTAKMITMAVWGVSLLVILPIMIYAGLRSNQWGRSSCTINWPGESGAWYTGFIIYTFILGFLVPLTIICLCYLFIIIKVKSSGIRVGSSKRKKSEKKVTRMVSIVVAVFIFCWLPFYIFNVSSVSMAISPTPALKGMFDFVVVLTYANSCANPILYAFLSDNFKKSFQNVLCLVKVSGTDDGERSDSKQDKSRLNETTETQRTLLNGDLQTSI

hsst1 = hsst1 (Homo sapiens, UniProt P30872); test: in vitro binding assay, hsst1
Chain of hsst1 (P30872 whole entry): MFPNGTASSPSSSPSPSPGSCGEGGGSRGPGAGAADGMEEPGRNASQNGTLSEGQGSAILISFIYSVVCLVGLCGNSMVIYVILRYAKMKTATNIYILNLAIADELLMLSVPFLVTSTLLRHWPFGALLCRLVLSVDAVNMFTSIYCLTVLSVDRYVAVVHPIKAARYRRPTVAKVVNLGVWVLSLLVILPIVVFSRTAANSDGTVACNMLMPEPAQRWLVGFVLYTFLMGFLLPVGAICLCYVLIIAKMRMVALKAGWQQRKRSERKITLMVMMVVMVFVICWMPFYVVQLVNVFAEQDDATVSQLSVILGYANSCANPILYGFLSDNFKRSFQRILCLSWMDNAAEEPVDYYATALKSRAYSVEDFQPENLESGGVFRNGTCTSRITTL

| SMILES | Ki (hsst3) [nM] | Ki (hsst4) [nM] | Ki (hsst5) [nM] | Ki (hsst2) [nM] | Ki (hsst1) [nM] |
| --- | --- | --- | --- | --- | --- |
| C[C@@H](O)[C@@H]1NC(=O)[C@H](CCCCN)NC(=O)[C@@H](Cc2c[nH]c3ccccc23)NC(=O)[C@H](Cc2ccncc2)NC(=O)[C@H](NC(=O)[C@@H](N)Cc2ccc(Cl)cc2)CSSC[C@@H](C(=O)N[C@@H](Cc2ccc3ccccc3c2)C(N)=O)NC1=O [Compound "A", Cpa-[D-Cys-4-Pal-D-Trp-Lys-Thr-Cys]-2-Nal-NH2] | 44 | 711 | 86 | 6.4 | 2760 |
| C[C@@H](O)[C@@H]1NC(=O)[C@H](CCCCN)N(C)C(=O)[C@@H](Cc2c[nH]c3ccccc23)NC(=O)[C@H](Cc2ccncc2)NC(=O)[C@H](NC(=O)[C@@H](N)Cc2ccc(Cl)cc2)CSSC[C@@H](C(=O)N[C@@H](Cc2ccc3ccccc3c2)C(N)=O)NC1=O [Compound "B", Cpa-[D-Cys-4-Pal-D-Trp-N-Me-Lys-Thr-Cys]-2-Nal-NH2] (H-[Phe(4-Cl)][dC][4Pal][dW][NMeK]TC[2Nal]-NH2; disulfide 2-7) | 66 | 1000 | 6 | 17.1 | 1000 |
